Source: ChEMBL document CHEMBL2169869, “Assay and inhibition of diacylglycerol lipase activity” (Bioorg Med Chem Lett, 2012)

Tests used:
Bacteria = assay: Inhibition of bacterial lipoprotein lipase at 10 uM by FRET assay
[1] = target: T1, Monoglyceride lipase (Homo sapiens) (UniProt Q99685); assay: Inhibition of human N-terminal histidine tagged full length MAGL expressed in Escherichia coli at 10 uM by coumarin ester substrate fluorescence assay
T1 sequence (whole entry): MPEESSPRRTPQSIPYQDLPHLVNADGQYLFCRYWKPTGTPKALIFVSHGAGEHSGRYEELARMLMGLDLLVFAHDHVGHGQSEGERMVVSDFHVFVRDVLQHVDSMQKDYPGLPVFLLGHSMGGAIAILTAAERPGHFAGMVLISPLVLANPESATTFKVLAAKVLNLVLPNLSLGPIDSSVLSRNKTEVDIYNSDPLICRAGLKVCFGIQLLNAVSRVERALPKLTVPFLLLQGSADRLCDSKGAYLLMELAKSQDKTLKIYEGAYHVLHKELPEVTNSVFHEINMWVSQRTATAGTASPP

[2] = target: T2, Diacylglycerol lipase-alpha (Homo sapiens) (UniProt Q9Y4D2); assay: Inhibition of human DAGLalpha expressed in HEK293T cell membrane using [14C]SAG substrate at 10 uM in presence of 0.05% Triton X-100 by […]; type: cell-based; conditions: HEK-293T
T2 sequence (whole entry): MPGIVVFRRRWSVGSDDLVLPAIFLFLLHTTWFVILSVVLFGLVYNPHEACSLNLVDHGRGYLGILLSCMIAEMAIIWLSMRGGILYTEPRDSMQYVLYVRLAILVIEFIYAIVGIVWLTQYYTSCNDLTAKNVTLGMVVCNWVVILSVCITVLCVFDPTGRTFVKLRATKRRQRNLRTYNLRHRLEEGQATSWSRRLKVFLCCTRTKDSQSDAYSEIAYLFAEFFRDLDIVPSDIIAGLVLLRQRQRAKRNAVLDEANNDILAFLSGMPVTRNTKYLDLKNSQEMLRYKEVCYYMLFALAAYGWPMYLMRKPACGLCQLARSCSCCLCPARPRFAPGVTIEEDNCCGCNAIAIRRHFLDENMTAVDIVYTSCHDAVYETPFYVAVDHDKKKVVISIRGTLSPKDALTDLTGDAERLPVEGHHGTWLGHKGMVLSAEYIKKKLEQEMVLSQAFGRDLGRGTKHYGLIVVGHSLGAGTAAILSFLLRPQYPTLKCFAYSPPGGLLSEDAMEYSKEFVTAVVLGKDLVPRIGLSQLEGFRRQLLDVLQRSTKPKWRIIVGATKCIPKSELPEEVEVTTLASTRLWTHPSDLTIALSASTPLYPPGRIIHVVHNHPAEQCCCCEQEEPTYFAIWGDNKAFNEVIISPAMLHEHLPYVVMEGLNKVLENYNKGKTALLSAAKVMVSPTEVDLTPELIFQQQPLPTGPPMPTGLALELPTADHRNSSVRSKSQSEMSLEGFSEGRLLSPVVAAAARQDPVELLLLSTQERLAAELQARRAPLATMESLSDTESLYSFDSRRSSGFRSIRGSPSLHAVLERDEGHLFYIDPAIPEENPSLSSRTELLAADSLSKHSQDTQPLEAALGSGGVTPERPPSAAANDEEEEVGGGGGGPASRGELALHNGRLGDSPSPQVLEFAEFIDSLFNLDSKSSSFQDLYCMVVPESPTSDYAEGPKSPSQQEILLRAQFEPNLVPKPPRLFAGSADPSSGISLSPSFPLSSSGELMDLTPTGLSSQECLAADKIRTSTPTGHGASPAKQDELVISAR

[3] = target: T3, Fatty-acid amide hydrolase 1 (Rattus norvegicus) (UniProt P97612); assay: Inhibition of rat histidine tagged FAAH expressed in Escherichia coli at 10 uM by coumarin ester substrate fluorescence assay
T3 sequence (whole entry): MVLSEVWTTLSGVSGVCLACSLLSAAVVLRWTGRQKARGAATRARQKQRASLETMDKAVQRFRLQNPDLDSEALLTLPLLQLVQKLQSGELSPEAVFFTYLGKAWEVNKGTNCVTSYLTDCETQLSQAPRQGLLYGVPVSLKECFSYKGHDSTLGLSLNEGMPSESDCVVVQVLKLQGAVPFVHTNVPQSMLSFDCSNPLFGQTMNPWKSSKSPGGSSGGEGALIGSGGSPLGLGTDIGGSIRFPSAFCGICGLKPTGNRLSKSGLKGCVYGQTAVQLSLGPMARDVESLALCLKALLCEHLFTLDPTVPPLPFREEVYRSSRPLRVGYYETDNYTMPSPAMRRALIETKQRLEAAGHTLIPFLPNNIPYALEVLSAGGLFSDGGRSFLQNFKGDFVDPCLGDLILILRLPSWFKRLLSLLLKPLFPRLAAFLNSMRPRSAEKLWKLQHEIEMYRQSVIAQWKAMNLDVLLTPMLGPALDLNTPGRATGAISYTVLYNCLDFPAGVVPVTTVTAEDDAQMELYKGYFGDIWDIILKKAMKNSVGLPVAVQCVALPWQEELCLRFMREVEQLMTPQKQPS

Structure (SMILES) | inhibition (Bacteria) [%] | inhibition [1] [%] | inhibition [2] [%] | inhibition [3] [%]
CCCCCCCCCCC[C@@H](C[C@@H]1OC(=O)[C@H]1CCCCCC)OC(=O)[C@@H](NC=O)[C@H](C)CC | 61 | 1 | 99 | 3
CCCCCCCCCCC[C@@H](C[C@@H]1OC(=O)[C@H]1CCCCCC)OC(=O)[C@H](NC=O)[C@H](C)CC | 86 | 39 | 98 | 28
CCCCCCCCCCC[C@@H](C[C@@H]1OC(=O)[C@H]1CCCCCC)OC(=O)[C@H](CC(C)C)NC=O [ORLISTAT] | – | 47 | – | 6
CCCCCCCCCCC[C@@H](C[C@@H]1OC(=O)[C@H]1CCCCCC)OC(=O)[C@H](NC=O)[C@@H](C)CC | 68 | 42 | 98 | 0
CCCCCCCCCCC[C@@H](C[C@@H]1OC(=O)[C@H]1CCCCCC)OC(=O)[C@@H](NC=O)[C@@H](C)CC | 84 | 16 | 99 | 7
O=C(Oc1ccc([N+](=O)[O-])cc1)N1CCC(C(O)(c2ccc3c(c2)OCO3)c2ccc3c(c2)OCO3)CC1 | 36 | 100 | – | 97
CCCCCCCCCCC[C@@H](C[C@@H]1OC(=O)[C@H]1CCCCCC)OC(=O)[C@H](CC)NC=O | 80 | 45 | 100 | 12
